Test results as given in the NIST ThermoML archive (doi:10.1016/j.jct.2014.01.023).

Details: Crystal; for vapor or sublimation pressure: Transpiration method

CN1C(=O)N(C)C(=O)C(C)(C)C1=O [1,3,5,5-tetramethylpyrimidine-2,4,6(1H,3H,5H)-trione]
Details | vapor or sublimation pressure [kPa]
323.2 K | 0.00344
326.2 K | 0.00457
328.2 K | 0.00555
332.1 K | 0.00801
334.2 K | 0.0099
336.2 K | 0.01132
338.2 K | 0.01415
340.1 K | 0.01647
342.9 K | 0.02036
346 K | 0.02803
347.4 K | 0.03182
349.2 K | 0.03555
350.1 K | 0.04039
351 K | 0.04459
351.1 K | 0.04429
352.9 K | 0.05014
355.2 K | 0.05715
356.2 K | 0.06561
360.2 K | 0.08943
365 K | 0.135
367.6 K | 0.168

CC1C(=O)N(C)C(=O)N(C)C1=O [1,3,5-trimethylbarbituric acid]
Details | Normal melting temperature [°C] | vapor or sublimation pressure [kPa]
322.5 K | – | 0.00289
328.4 K | – | 0.00528
332.6 K | – | 0.00792
338.6 K | – | 0.01482
343 K | – | 0.02296
349.4 K | – | 0.04451
354.5 K | – | 0.06767
358.6 K | – | 0.09676
DTA | 90.50 | –

CN1C(=O)NC(=O)C(C)(C)C1=O [1,5,5-trimethylbarbituric acid]
Details | vapor or sublimation pressure [kPa]
360 K | 0.00265
366.1 K | 0.00471
366.2 K | 0.00487
374.2 K | 0.00972
379.6 K | 0.01551
380.8 K | 0.01685
382.7 K | 0.02034
386.8 K | 0.02976
387.5 K | 0.02935
388.7 K | 0.03375
389.7 K | 0.03771
392.6 K | 0.04726
393.7 K | 0.05266
396.7 K | 0.06438
402.5 K | 0.09884
406.7 K | 0.1462
410.2 K | 0.187
411.7 K | 0.196
414.2 K | 0.2461
419.9 K | 0.3607
427.9 K | 0.6087
